Experimental data reported in BindingDB's records for doi:10.1021/jm950369c (University of Arizona, 1996).

Assay: Inhibition of [3H]c[D-Pen2,p-Cl-Phe4,D-Pen5]enkephalin binding to delta opioid receptor of guinea pig brain plasma membrane homogenates

SMILES | IC50 [nM]
CC[C@H](C)[C@H](NC(=O)[C@H](CCCNC(=N)N)NC(=O)[C@@H]1CCCCNC(=O)C[C@@H](NC(=O)[C@@H](N)Cc2ccc(O)cc2)C(=O)NCC(=O)N[C@@H](Cc2ccccc2)C(=O)N[C@@H](CC(C)C)C(=O)N1)C(=O)N[C@@H](CCCNC(=N)N)C(=O)N1CCC[C@H]1C(=O)N[C@@H](CCCCN)C(N)=O [Cyclic Lactam Peptide Analogues of Dynorphin A(1-11)-NH2] | 910
CC[C@H](C)[C@H](NC(=O)[C@H](CCCCN)NC(=O)[C@H](CCCNC(=N)N)NC(=O)[C@H](CC(C)C)NC(=O)[C@H](Cc1ccccc1)NC(=O)[C@@H](CC(=O)O)NC(=O)CNC(=O)[C@@H](N)Cc1ccc(O)cc1)C(=O)N[C@@H](CCCNC(=N)N)C(=O)N1CCC[C@H]1C(=O)N[C@@H](CCCCN)C(N)=O [Cyclic Lactam Peptide Analogues of Dynorphin A(1-11)-NH2] | 870
CC[C@H](C)[C@H](NC(=O)[C@H](CCCNC(=N)N)NC(=O)[C@@H]1CCCCNC(=O)C[C@H](NC(=O)[C@@H](N)Cc2ccc(O)cc2)C(=O)NCC(=O)N[C@@H](Cc2ccccc2)C(=O)N[C@@H](CC(C)C)C(=O)N1)C(=O)N[C@@H](CCCNC(=N)N)C(=O)N1CCC[C@H]1C(=O)N[C@@H](CCCCN)C(N)=O [Cyclic Lactam Peptide Analogues of Dynorphin A(1-11)-NH2Cyclic Lactam Peptide Analogues of Dynorphin A(1-11)-NH2] | 12
